Data as given in patent publication US8664203B2, “Thiazole derivatives and their use as P2Y12 receptor antagonists” (Actelion Pharmaceuticals Ltd., priority 2009, dated 2014).
pIC50: −log10 of the molar value. Where a name gives a salt, the structure may show the parent alone.

target: T1, human P2Y12 receptor (Homo sapiens, UniProt Q9H244); test: P2Y12 receptor binding assay; details: CHO cells with recombinant expression of the human P2Y12 receptor; tritium-labeled 2-methyl-S-ADP; RT, 2 hours
T1 construct: expressed in transfected cells; host or cells: CHO cells
T1 sequence (Q9H244 whole entry): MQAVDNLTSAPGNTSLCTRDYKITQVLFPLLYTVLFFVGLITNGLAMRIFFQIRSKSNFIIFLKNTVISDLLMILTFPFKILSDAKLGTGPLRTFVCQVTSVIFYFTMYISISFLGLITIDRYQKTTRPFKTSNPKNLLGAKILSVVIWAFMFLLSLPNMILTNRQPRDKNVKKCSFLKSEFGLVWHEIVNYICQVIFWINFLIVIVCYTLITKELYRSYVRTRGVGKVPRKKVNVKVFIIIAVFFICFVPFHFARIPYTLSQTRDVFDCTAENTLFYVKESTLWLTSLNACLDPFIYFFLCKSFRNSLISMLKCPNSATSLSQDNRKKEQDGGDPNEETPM
Description: P2Y12 Receptor Binding Assay
Chinese Hamster Ovary (CHO) cells with recombinant expression of the human P2Y12 receptor were cultured in 24 well cell-culture plates. Cells were washed three times with binding buffer (50 mM Tris pH 7.4, 100 mM NaCl, 1 mM EDTA, 0.5% BSA). The cells were then incubated with 0.5 ml per well binding buffer containing tritium-labeled 2-methyl-thio-adenosine 5′-diphosphate (2-methyl-S-ADP) (between 100′000 and 300′000 dpm per well) and various concentrations of test compounds. After incubation at RT for 2 hours, cells were washed three times with binding buffer. Then, cells were solubilized by addition of 0.5 ml solubilization buffer (SDS, NaOH, EDTA). The content of each well was then transferred into beta-counter vials and 2.0 ml of Ultima Gold Scintillation liquid was added.

| SMILES | pIC50 |
| --- | --- |
| CCCCOC(=O)N1CCN(C(=O)[C@H](CCC(=O)O)NC(=O)c2csc(-c3ccccc3C)n2)CC1 [Example 6, 4-{(S)-4-Carboxy-2-[(2-o-tolyl-thiazole-4-carbonyl)-amino]-butyryl}-piperazine-1-carboxylic acid butyl ester] | 6.48 |
| CCCCOC(=O)N1CCN(C(=O)[C@H](CP(=O)(O)O)NC(=O)c2nc(-c3ccccc3)sc2N2CCN(C)CC2)CC1 [Example 45, 4-((R)-2-{[5-(4-Methyl-piperazin-1-yl)-2-phenyl-thiazole-4-carbonyl]-amino}-3-phosphono-propionyl)-piperazine-1-carboxylic acid butyl ester; hydrochloride] | 8.52 |
| CCCCOC(=O)N1CCN(C(=O)[C@H](CP(=O)(O)O)NC(=O)c2csc(-c3ccccc3)n2)CC1 [Example 9, 4-{(R)-2-[(2-Phenyl-thiazole-4-carbonyl)-amino]-3-phosphono-propionyl}-piperazine-1-carboxylic acid butyl ester] | 8.70 |
| CCCCOC(=O)N1CCN(C(=O)[C@H](CP(=O)(OCC)OCC)NC(=O)c2nc(-c3ccccc3)sc2N2CCN(C)CC2)CC1 [Example 44, 4-((R)-3-(Diethoxy-phosphoryl)-2-{[5-(4-methyl-piperazin-1-yl)-2-phenyl-thiazole-4-carbonyl]-amino}-propionyl)-piperazine-1-carboxylic acid butyl ester] | 5.38 |
| CCCCOC(=O)N1CCN(C(=O)CNC(=O)c2nc(-c3ccccc3)c(/C=C/C(=O)OCC)s2)CC1 [Example 53, 4-(2-{[5-((E)-2-Ethoxycarbonyl-vinyl)-4-phenyl-thiazole-2-carbonyl]-amino}-acetyl)-piperazine-1-carboxylic acid butyl ester] | 6.29 |
| CCCCOC(=O)N1CCN(C(=O)[C@@H](NC(=O)c2csc(-c3ccccc3)n2)C(C)C)CC1 [Example 36, 4-{(S)-3-Methyl-2-[(2-phenyl-thiazole-4-carbonyl)-amino]-butyryl}-piperazine-1-carboxylic acid butyl ester] | 6.98 |
| CCCCOC(=O)N1CCN(C(=O)CNC(=O)c2nc(-c3ccccc3)sc2NCCCOC)CC1 [Example 28, 4-(2-{[5-(3-Methoxy-propylamino)-2-phenyl-thiazole-4-carbonyl]-amino}-acetyl)-piperazine-1-carboxylic acid butyl ester] | 7.33 |
| CCCCOC(=O)N1CCN(C(=O)CNC(=O)c2nc(-c3ccccc3)c(-c3ccccc3)s2)CC1 [Example 50, 4-{2-[(4,5-Diphenyl-thiazole-2-carbonyl)-amino]-acetyl}-piperazine-1-carboxylic acid butyl ester] | 5.93 |
| CCCCOC(=O)N1CCN(C(=O)CNC(=O)c2nc(-c3ccccc3)sc2CCCOC)CC1 [Example 35, 4-(2-{[5-(3-Methoxy-propyl)-2-phenyl-thiazole-4-carbonyl]-amino}-acetyl)-piperazine-1-carboxylic acid butyl ester] | 7.00 |
| CCOC(=O)N1CCN(C(=O)[C@H](CCC(=O)O)NC(=O)c2csc(-c3ccccc3)n2)CC1 [Example 2, 4-{(S)-4-Carboxy-2-[(2-phenyl-thiazole-4-carbonyl)-amino]-butyryl}-piperazine-1-carboxylic acid ethyl ester] | 6.61 |
| CCCCOC(=O)N1CCN(C(=O)CNC(=O)c2nc(-c3ccccc3)sc2NCCC(=O)OCC)CC1 [Example 62, 4-(2-{[5-(2-Ethoxycarbonyl-ethylamino)-2-phenyl-thiazole-4-carbonyl]-amino}-acetyl)-piperazine-1-carboxylic acid butyl ester] | 6.87 |
| CCOC(=O)N1CCN(C(=O)CNC(=O)c2csc(-c3ccccc3)n2)CC1 [Example 1, 4-{2-[(2-Phenyl-thiazole-4-carbonyl)-amino]-acetyl}-piperazine-1-carboxylic acid ethyl ester] | 5.04 |
| CCCCOC(=O)N1CCN(C(=O)CNC(=O)c2nc(-c3ccccc3)sc2/C=C/C(=O)OCC)CC1 [Example 30, 4-(2-{[5-((E)-2-Ethoxycarbonyl-vinyl)-2-phenyl-thiazole-4-carbonyl]-amino}-acetyl)-piperazine-1-carboxylic acid butyl ester] | 6.57 |
| CCCCOC(=O)N1CCN(C(=O)CNC(=O)c2nc(-c3ccccc3)sc2/C=C/C(=O)O)CC1 [Example 31, 4-(2-{[5-((E)-2-Carboxy-vinyl)-2-phenyl-thiazole-4-carbonyl]-amino}-acetyl)-piperazine-1-carboxylic acid butyl ester] | 7.72 |
| CCCCOC(=O)N1CCN(C(=O)CNC(=O)c2nc(-c3ccccc3)sc2NCCC(=O)O)CC1 [Example 61, 4-(2-{[5-(2-Carboxy-ethylamino)-2-phenyl-thiazole-4-carbonyl]-amino}-acetyl)-piperazine-1-carboxylic acid butyl ester] | 7.15 |
| CCCCOC(=O)N1CCN(C(=O)[C@H](CCC(=O)O)NC(=O)c2csc(-c3ccccc3OC)n2)CC1 [Example 5, 4-((S)-4-Carboxy-2-{[2-(2-methoxy-phenyl)-thiazole-4-carbonyl]-amino}-butyryl)-piperazine-1-carboxylic acid butyl ester] | 6.33 |
| CCCCOC(=O)N1CCN(C(=O)[C@H](CO)NC(=O)c2csc(-c3ccccc3)n2)CC1 [Example 38, 4-{(S)-3-Hydroxy-2-[(2-phenyl-thiazole-4-carbonyl)-amino]-propionyl}-piperazine-1-carboxylic acid butyl ester] | 7.15 |
| CCCCOC(=O)N1CCN(C(=O)[C@H](CCC(=O)O)NC(=O)c2nc(-c3ccccc3)sc2Cl)CC1 [Example 16, 4-{(S)-4-Carboxy-2-[(5-chloro-2-phenyl-thiazole-4-carbonyl)-amino]-butyryl}-piperazine-1-carboxylic acid butyl ester] | 8.15 |
| CCCCOC(=O)N1CCN(C(=O)[C@H](CP(=O)(OCC)OCC)NC(=O)c2nc(-c3ccccc3)sc2N(C)CCCC)CC1 [Example 46, 4-[(R)-2-{[5-(Butyl-methyl-amino)-2-phenyl-thiazole-4-carbonyl]-amino}-3-(diethoxy-phosphoryl)-propionyl]-piperazine-1-carboxylic acid butyl ester] | 6.09 |
| CCCCOC(=O)N1CCN(C(=O)CNC(=O)c2nc(-c3ccccc3)c(CCC(=O)OC)s2)CC1 [Example 54, 4-(2-{[5-(2-Methoxycarbonyl-ethyl)-4-phenyl-thiazole-2-carbonyl]-amino}-acetyl)-piperazine-1-carboxylic acid butyl ester] | 6.26 |
| CCCCOC(=O)N1CCN(C(=O)[C@H](CCC(=O)O)NC(=O)c2nc(-c3ccccc3)sc2N2CCCC2)CC1 [Example 24, 4-{(S)-4-Carboxy-2-[(2-phenyl-5-pyrrolidin-1-yl-thiazole-4-carbonyl)-amino]-butyryl}-piperazine-1-carboxylic acid butyl ester] | 8.15 |
| CCCCOC(=O)N1CCN(C(=O)[C@H](CCC(=O)O)NC(=O)c2nc(-c3ccccc3)sc2/C=C/C(=O)O)CC1 [Example 19, 4-((S)-4-Carboxy-2-{[5-((E)-2-carboxy-vinyl)-2-phenyl-thiazole-4-carbonyl]-amino}-butyryl)-piperazine-1-carboxylic acid butyl ester] | 8.22 |
| CCCCOC(=O)N1CCN(C(=O)CNC(=O)c2nc(-c3ccccc3)c(CCCOC)s2)CC1 [Example 52, 4-(2-{[5-(3-Methoxy-propyl)-4-phenyl-thiazole-2-carbonyl]-amino}-acetyl)-piperazine-1-carboxylic acid butyl ester] | 6.13 |
